# Test results published in PubChem BioAssay (NCI).
#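 Compound exposure: 48 hours, 5 concentrations, 96-well plates. GI50 marks 50% less growth. TGI: total growth inhibition.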
# Experiments:
# Test in all cases: NCI anticancer screen, dose series, 48 h
# [1] = system: SK-MEL-5 melanoma
# [2] = system: ACHN renal
# [3] = system: MALME-3M melanoma
# [4] = system: OVCAR-8 ovarian
# [5] = system: IGROV1 ovarian
# [6] = system: OVCAR-3 ovarian
# [7] = system: PC-3 prostate
# [8] = system: HCT-116 colon
# [9] = system: MCF7 breast
# [10] = system: KM12 colon
# [11] = system: CCRF-CEM leukemia
# [12] = system: SR leukemia
# [13] = system: HCC-2998 colon
# [14] = system: SF-295 CNS
# [15] = system: RXF 393 renal
# [16] = system: K-562 leukemia
# [17] = system: SK-MEL-28 melanoma
# [18] = system: MDA-MB-435
# [19] = system: M14 melanoma
# [20] = system: UACC-257 melanoma
# [21] = system: OVCAR-5 ovarian
# [22] = system: SN12C renal
# [23] = system: OVCAR-4 ovarian
# [24] = system: NCI/ADR-RES ovarian
# [25] = system: SW-620 colon
# [26] = system: HT29 colon
# [27] = system: HCT-15 colon
# [28] = system: BT-549 breast
# [29] = system: NCI-H460 lung
# [30] = system: SF-268 CNS
# [31] = system: COLO 205 colon
# [32] = system: LOX IMVI melanoma
# [33] = system: EKVX NSCLC
# [34] = system: T-47D breast
# [35] = system: RPMI-8226 leukemia
# [36] = system: SK-MEL-2 melanoma
# [37] = system: SNB-19 CNS
# [38] = system: HOP-62 NSCLC
# [39] = system: UO-31 renal
# [40] = system: U251 CNS
# [41] = system: NCI-H522 lung
# [42] = system: TK-10 renal
# [43] = system: A549 NSCLC
# [44] = system: 786-0 renal
# [45] = system: HS 578T breast
# [46] = system: SF-539 CNS
# [47] = system: UACC-62 melanoma
# [48] = system: DU-145 prostate
# [49] = system: SK-OV-3 ovarian
# [50] = system: CAKI-1 renal
# [51] = system: MDA-MB-231 breast
# [52] = system: HL-60(TB) leukemia
# [53] = system: MOLT-4 leukemia
# [54] = system: NCI-H226 lung
# [55] = system: HOP-92 NSCLC
compound,measurement,setting,value
C=C1C(=O)O[C@@H]2C[C@@H]1CC[C@]1(C)O[C@H]1CC[C@@]1(C)O[C@@H]1CC[C@@]2(C)O,GI50,[1],14 µM
same,TGI,[1],34.8 µM
same,GI50,[2],25.1 µM
same,TGI,[2],75.2 µM
same,GI50,[3],22.3 µM
same,TGI,[3],71.2 µM
same,GI50,[4],30.7 µM
same,TGI,[4],> 100 µM
same,GI50,[5],24.3 µM
same,TGI,[5],> 100 µM
same,GI50,[6],16.2 µM
same,TGI,[6],51.9 µM
same,GI50,[7],21.2 µM
same,TGI,[7],94.9 µM
same,GI50,[8],23.1 µM
same,TGI,[8],65.9 µM
same,GI50,[9],99.8 µM
same,TGI,[9],> 100 µM
same,GI50,[10],> 100 µM
same,TGI,[10],> 100 µM
same,GI50,[11],17.5 µM
same,TGI,[11],49.4 µM
same,GI50,[12],3.49 µM
same,TGI,[12],31.1 µM
same,GI50,[13],6.49 µM
same,TGI,[13],24.4 µM
same,GI50,[14],26.7 µM
same,TGI,[14],75.7 µM
same,GI50,[15],55.9 µM
same,TGI,[15],> 100 µM
same,GI50,[16],19.5 µM
same,TGI,[16],> 100 µM
same,GI50,[17],17.5 µM
same,TGI,[17],43.1 µM
same,GI50,[18],33 µM
same,TGI,[18],> 100 µM
same,GI50,[19],34.2 µM
same,TGI,[19],> 100 µM
same,GI50,[20],61.9 µM
same,TGI,[20],> 100 µM
same,GI50,[21],29.2 µM
same,TGI,[21],> 100 µM
same,GI50,[22],22.5 µM
same,TGI,[22],61.5 µM
same,GI50,[23],13.7 µM
same,TGI,[23],33.1 µM
same,GI50,[24],20.1 µM
same,TGI,[24],46.9 µM
same,GI50,[25],29.2 µM
same,TGI,[25],> 100 µM
same,GI50,[26],24.7 µM
same,TGI,[26],87.6 µM
same,GI50,[27],29.2 µM
same,TGI,[27],> 100 µM
same,GI50,[28],31.9 µM
same,TGI,[28],89.5 µM
same,GI50,[29],> 100 µM
same,TGI,[29],> 100 µM
same,GI50,[30],> 100 µM
same,TGI,[30],> 100 µM
same,GI50,[31],16.4 µM
same,TGI,[31],34.2 µM
same,GI50,[32],28.7 µM
same,TGI,[32],80.8 µM
same,GI50,[33],59.8 µM
same,TGI,[33],> 100 µM
same,GI50,[34],12.2 µM
same,TGI,[34],33.3 µM
same,GI50,[35],12.4 µM
same,TGI,[35],42.7 µM
same,GI50,[36],50.1 µM
same,TGI,[36],> 100 µM
same,GI50,[37],68.6 µM
same,TGI,[37],> 100 µM
same,GI50,[38],75.8 µM
same,TGI,[38],> 100 µM
same,GI50,[39],13.7 µM
same,TGI,[39],45.1 µM
same,GI50,[40],42.8 µM
same,TGI,[40],> 100 µM
same,GI50,[41],19.1 µM
same,TGI,[41],46.2 µM
same,GI50,[42],39.4 µM
same,TGI,[42],> 100 µM
same,GI50,[43],> 100 µM
same,TGI,[43],> 100 µM
same,GI50,[44],27.7 µM
same,TGI,[44],89.9 µM
same,GI50,[45],22.7 µM
same,TGI,[45],67.3 µM
same,GI50,[46],35.1 µM
same,TGI,[46],> 100 µM
same,GI50,[47],42 µM
same,TGI,[47],> 100 µM
same,GI50,[48],35 µM
same,TGI,[48],> 100 µM
same,GI50,[49],> 100 µM
same,TGI,[49],> 100 µM
same,GI50,[50],27.3 µM
same,TGI,[50],79.9 µM
same,GI50,[51],25.1 µM
same,TGI,[51],68.4 µM
same,GI50,[52],15.2 µM
same,TGI,[52],46.5 µM
same,GI50,[53],13.5 µM
same,TGI,[53],36.7 µM
same,GI50,[54],26.7 µM
same,TGI,[54],86.2 µM
OC(c1cc2cc(Br)ccc2c2cc(Br)ccc12)C1CCCCN1 (stereo not given),GI50,[21],1.58 µM
same,TGI,[21],3.13 µM
same,GI50,[55],1.21 µM
same,TGI,[55],2.67 µM
same,GI50,[39],1.46 µM
same,TGI,[39],3.18 µM
same,GI50,[48],1.95 µM
same,TGI,[48],3.43 µM
same,GI50,[50],1.76 µM
same,TGI,[50],3.54 µM
same,GI50,[52],1.75 µM
same,TGI,[52],3.43 µM
